# Assay results taken from PubChem BioAssay (NCI).
#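 1) Cells in 96-well plates. 2) Compound, 48 h, 5 concentrations. 3) Linear interpolation between surrounding doses. 4) Unreached endpoint = highest concentration. TGI: concentration producing complete growth inhibition.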
# What was measured:
# Experiment in all cases: NCI anticancer screen, dose series, 48 h
# [1] = test system: SF-295 CNS
# [2] = test system: PC-3 prostate
# [3] = test system: LOX IMVI melanoma
# [4] = test system: M14 melanoma
# [5] = test system: HOP-62 NSCLC
# [6] = test system: IGROV1 ovarian
# [7] = test system: SR leukemia
# [8] = test system: HL-60(TB) leukemia
# [9] = test system: KM12 colon
# [10] = test system: MDA-MB-231 breast
# [11] = test system: COLO 205 colon
# [12] = test system: SNB-75 CNS
# [13] = test system: SW-620 colon
# [14] = test system: DU-145 prostate
# [15] = test system: MOLT-4 leukemia
# [16] = test system: EKVX NSCLC
# [17] = test system: CCRF-CEM leukemia
# [18] = test system: CAKI-1 renal
# [19] = test system: NCI-H23 lung
# [20] = test system: OVCAR-8 ovarian
# [21] = test system: UACC-62 melanoma
# [22] = test system: TK-10 renal
# [23] = test system: HT29 colon
# [24] = test system: MCF7 breast
# [25] = test system: UACC-257 melanoma
# [26] = test system: SF-268 CNS
# [27] = test system: HCT-15 colon
# [28] = test system: K-562 leukemia
# [29] = test system: A549 NSCLC
# [30] = test system: SK-OV-3 ovarian
# [31] = test system: 786-0 renal
# [32] = test system: MDA-N
# [33] = test system: RXF 393 renal
# [34] = test system: SK-MEL-5 melanoma
# [35] = test system: HCC-2998 colon
# [36] = test system: SK-MEL-28 melanoma
# [37] = test system: SN12C renal
# [38] = test system: T-47D breast
# [39] = test system: RPMI-8226 leukemia
# [40] = test system: MALME-3M melanoma
# [41] = test system: HS 578T breast
# [42] = test system: U251 CNS
# [43] = test system: SK-MEL-2 melanoma
# [44] = test system: SNB-19 CNS
# [45] = test system: OVCAR-3 ovarian
# [46] = test system: ACHN renal
# [47] = test system: HCT-116 colon
# [48] = test system: A498 renal
# [49] = test system: HOP-92 NSCLC
# [50] = test system: OVCAR-5 ovarian
# [51] = test system: NCI-H522 lung
# [52] = test system: OVCAR-4 ovarian
# [53] = test system: NCI-H226 lung
# [54] = test system: SF-539 CNS
# [55] = test system: NCI-H460 lung
# [56] = test system: MDA-MB-435
# [57] = test system: UO-31 renal
# [58] = test system: BT-549 breast
# [59] = test system: NCI/ADR-RES ovarian
structure (smiles),measurement,setting,value
Cc1c(CCN=P(c2ccccc2)(c2ccccc2)c2ccccc2)c(=O)n2c([nH]c3ccccc32)c1C#N,TGI,[1],> 10 µM
same,TGI,[2],> 10 µM
same,TGI,[3],> 10 µM
same,TGI,[4],> 10 µM
same,TGI,[5],> 10 µM
same,TGI,[6],> 10 µM
same,TGI,[7],> 10 µM
same,TGI,[8],> 10 µM
same,TGI,[9],> 10 µM
same,TGI,[10],> 10 µM
same,TGI,[11],> 10 µM
same,TGI,[12],> 10 µM
same,TGI,[13],> 10 µM
same,TGI,[14],> 10 µM
same,TGI,[15],> 10 µM
same,TGI,[16],> 10 µM
same,TGI,[17],> 10 µM
same,TGI,[18],> 10 µM
same,TGI,[19],> 10 µM
same,TGI,[20],> 10 µM
same,TGI,[21],> 10 µM
same,TGI,[22],> 10 µM
same,TGI,[23],> 10 µM
same,TGI,[24],> 10 µM
same,TGI,[25],> 10 µM
same,TGI,[26],> 10 µM
same,TGI,[27],> 10 µM
same,TGI,[28],> 10 µM
same,TGI,[29],> 10 µM
same,TGI,[30],> 10 µM
same,TGI,[31],> 10 µM
same,TGI,[32],> 10 µM
same,TGI,[33],> 10 µM
same,TGI,[34],> 10 µM
same,TGI,[35],> 10 µM
same,TGI,[36],> 10 µM
same,TGI,[37],> 10 µM
same,TGI,[38],> 10 µM
same,TGI,[39],> 10 µM
same,TGI,[40],> 10 µM
COc1ccc(NC(=O)C2=C(SC)C(C#N)C(=O)N=C2N)cc1 (stereo unspecified),TGI,[1],> 100 µM
same,TGI,[2],> 100 µM
same,TGI,[3],> 100 µM
same,TGI,[4],> 100 µM
same,TGI,[41],> 100 µM
same,TGI,[5],> 100 µM
same,TGI,[6],> 100 µM
same,TGI,[7],> 100 µM
same,TGI,[8],> 100 µM
same,TGI,[42],> 100 µM
same,TGI,[43],> 100 µM
same,TGI,[44],> 100 µM
same,TGI,[9],8.57 µM
same,TGI,[10],> 100 µM
same,TGI,[11],> 100 µM
same,TGI,[45],> 100 µM
same,TGI,[13],> 100 µM
same,TGI,[14],> 100 µM
same,TGI,[15],> 100 µM
same,TGI,[16],> 100 µM
same,TGI,[46],> 100 µM
same,TGI,[47],> 100 µM
same,TGI,[17],> 100 µM
same,TGI,[18],> 100 µM
same,TGI,[48],> 100 µM
same,TGI,[49],69.8 µM
same,TGI,[19],> 100 µM
same,TGI,[21],> 100 µM
same,TGI,[50],> 100 µM
same,TGI,[22],> 100 µM
same,TGI,[23],> 100 µM
same,TGI,[24],> 100 µM
same,TGI,[25],> 100 µM
same,TGI,[51],32.1 µM
same,TGI,[26],> 100 µM
same,TGI,[27],> 100 µM
same,TGI,[28],> 100 µM
same,TGI,[29],> 100 µM
same,TGI,[52],> 100 µM
same,TGI,[53],> 100 µM
same,TGI,[30],> 100 µM
same,TGI,[54],> 100 µM
same,TGI,[55],> 100 µM
same,TGI,[31],> 100 µM
same,TGI,[32],> 100 µM
same,TGI,[56],> 100 µM
same,TGI,[33],> 100 µM
same,TGI,[34],> 100 µM
same,TGI,[57],> 100 µM
same,TGI,[35],> 100 µM
same,TGI,[36],> 100 µM
same,TGI,[37],> 100 µM
same,TGI,[58],> 100 µM
same,TGI,[38],> 100 µM
same,TGI,[39],> 100 µM
same,TGI,[40],76.8 µM
Cc1cccc(C(C)O)n1 (stereo unspecified),TGI,[1],> 100 µM
same,TGI,[2],> 100 µM
same,TGI,[4],> 100 µM
same,TGI,[41],> 100 µM
same,TGI,[5],> 100 µM
same,TGI,[6],> 100 µM
same,TGI,[7],> 100 µM
same,TGI,[8],> 100 µM
same,TGI,[42],> 100 µM
same,TGI,[43],> 100 µM
same,TGI,[44],> 100 µM
same,TGI,[9],> 100 µM
same,TGI,[10],> 100 µM
same,TGI,[11],> 100 µM
same,TGI,[12],> 100 µM
same,TGI,[45],> 100 µM
same,TGI,[13],> 100 µM
same,TGI,[14],> 100 µM
same,TGI,[15],> 100 µM
same,TGI,[16],> 100 µM
same,TGI,[46],> 100 µM
same,TGI,[47],> 100 µM
same,TGI,[17],> 100 µM
same,TGI,[18],> 100 µM
same,TGI,[48],> 100 µM
same,TGI,[19],> 100 µM
same,TGI,[20],> 100 µM
same,TGI,[21],> 100 µM
same,TGI,[50],> 100 µM
same,TGI,[22],> 100 µM
same,TGI,[23],> 100 µM
same,TGI,[24],> 100 µM
same,TGI,[25],> 100 µM
same,TGI,[51],> 100 µM
same,TGI,[26],> 100 µM
same,TGI,[27],> 100 µM
same,TGI,[28],> 100 µM
same,TGI,[29],> 100 µM
same,TGI,[52],> 100 µM
same,TGI,[59],> 100 µM
same,TGI,[53],> 100 µM
same,TGI,[30],> 100 µM
same,TGI,[54],> 100 µM
same,TGI,[55],> 100 µM
same,TGI,[31],> 100 µM
same,TGI,[32],> 100 µM
same,TGI,[34],> 100 µM
same,TGI,[57],> 100 µM
same,TGI,[35],> 100 µM
same,TGI,[36],> 100 µM
same,TGI,[37],> 100 µM
same,TGI,[58],> 100 µM
same,TGI,[38],> 100 µM
same,TGI,[40],> 100 µM
CN(C(=O)C1=CCCCCC1)c1ccccc1I,TGI,[1],> 100 µM
same,TGI,[2],> 100 µM
same,TGI,[3],> 100 µM
same,TGI,[4],> 100 µM
same,TGI,[41],35.5 µM
same,TGI,[5],> 100 µM
same,TGI,[6],> 100 µM
same,TGI,[7],> 100 µM
same,TGI,[8],> 100 µM
same,TGI,[42],> 100 µM
same,TGI,[43],> 100 µM
same,TGI,[44],> 100 µM
same,TGI,[9],93.9 µM
same,TGI,[10],> 100 µM
same,TGI,[11],37.6 µM
same,TGI,[12],79.7 µM
same,TGI,[45],> 100 µM
same,TGI,[13],> 100 µM
same,TGI,[14],> 100 µM
same,TGI,[15],> 100 µM
same,TGI,[16],80.4 µM
same,TGI,[46],> 100 µM
same,TGI,[47],> 100 µM
same,TGI,[17],> 100 µM
same,TGI,[18],> 100 µM
same,TGI,[48],> 100 µM
same,TGI,[19],> 100 µM
same,TGI,[20],> 100 µM
same,TGI,[21],> 100 µM
same,TGI,[50],> 100 µM
same,TGI,[24],> 100 µM
same,TGI,[25],> 100 µM
same,TGI,[26],95.9 µM
same,TGI,[27],> 100 µM
same,TGI,[28],> 100 µM
same,TGI,[29],> 100 µM
same,TGI,[52],86.9 µM
same,TGI,[59],68.7 µM
same,TGI,[30],> 100 µM
same,TGI,[55],> 100 µM
same,TGI,[31],> 100 µM
same,TGI,[32],> 100 µM
same,TGI,[56],> 100 µM
same,TGI,[33],> 100 µM
same,TGI,[34],> 100 µM
same,TGI,[57],> 100 µM
same,TGI,[35],> 100 µM
same,TGI,[36],> 100 µM
same,TGI,[37],> 100 µM
same,TGI,[38],> 100 µM
same,TGI,[39],> 100 µM
